In PubChem BioAssay AID248 (DTP/NCI, 2004):
Inconclusive results and toxic doses are left out. Cut-off read from the data, not from the text of the source: active = T/C of 150% or more; inactive = T/C below 125%.

System: L1210 leukemia ip in BDF1 mice, survival T/C
Assay: NCI In Vivo Anticancer Drug Screen. Data for tumor model L1210 Leukemia (intraperitoneal) in B6D2F1 (BDF1) mice
Conditions: endpoint: mean survival time, higher = longer survival
In short: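 Tumor was transplanted into mice, which were then dosed with test compound or vehicle alone. Survival was recorded for each group, and the treated figure was expressed relative to the control figure.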

[1] = dose: 100.0 mg/kg/injection, schedule: Q01DX009 (ip), vehicle: Klucel (hydroxypropylcellulose) (HPC)
[2] = dose: 200.0 mg/kg/injection, schedule: Q01DX009 (ip), vehicle: Klucel (hydroxypropylcellulose) (HPC)
[3] = dose: 400.0 mg/kg/injection, schedule: Q01DX009 (ip), vehicle: Klucel (hydroxypropylcellulose) (HPC)
[4] = dose: 100.0 mg/kg/injection, schedule: Q04DX002 (ip), vehicle: Klucel (hydroxypropylcellulose) (HPC)
[5] = dose: 200.0 mg/kg/injection, schedule: Q04DX002 (ip), vehicle: Klucel (hydroxypropylcellulose) (HPC)
[6] = dose: 100.0 mg/kg/injection, schedule: Q01DX001 (ip), vehicle: saline
[7] = dose: 200.0 mg/kg/injection, schedule: Q01DX001 (ip), vehicle: saline
[8] = dose: 400.0 mg/kg/injection, schedule: Q01DX001 (ip), vehicle: saline
[9] = dose: 100.0 mg/kg/injection, schedule: Q01DX009 (ip), vehicle: saline with Tween-80
[10] = dose: 200.0 mg/kg/injection, schedule: Q01DX009 (ip), vehicle: saline with Tween-80
[11] = dose: 50.0 mg/kg/injection, schedule: Q01DX001 (ip), vehicle: saline

Measured: T/C

CC(C)(SCCc1ccc([N+](=O)[O-])cc1)C(N)C(=O)O (centres undefined)
inactive: dose: 12.0 mg/kg/injection, schedule: Q01DX009 (ip), vehicle: Klucel (hydroxypropylcellulose) (HPC) 93 % of control | dose: 12.5 mg/kg/injection, schedule: Q04DX003 (ip), vehicle: Klucel (hydroxypropylcellulose) (HPC) 91 % of control | dose: 25.0 mg/kg/injection, schedule: Q01DX009 (ip), vehicle: Klucel (hydroxypropylcellulose) (HPC) 104 % of control | dose: 25.0 mg/kg/injection, schedule: Q04DX003 (ip), vehicle: Klucel (hydroxypropylcellulose) (HPC) 91 % of control | dose: 50.0 mg/kg/injection, schedule: Q01DX009 (ip), vehicle: Klucel (hydroxypropylcellulose) (HPC) 103 % of control | dose: 50.0 mg/kg/injection, schedule: Q04DX003 (ip), vehicle: Klucel (hydroxypropylcellulose) (HPC) 93 % of control

CN(C)C(=S)SCN1CCCCC1
inactive: [1] 103 % of control | dose: 100.0 mg/kg/injection, schedule: Q04DX003 (ip), vehicle: Klucel (hydroxypropylcellulose) (HPC) 96 % of control | [2] 97 % of control | dose: 200.0 mg/kg/injection, schedule: Q04DX003 (ip), vehicle: Klucel (hydroxypropylcellulose) (HPC) 104 % of control | dose: 400.0 mg/kg/injection, schedule: Q04DX003 (ip), vehicle: Klucel (hydroxypropylcellulose) (HPC) 107 % of control

CN(C)c1ccc(/C=N/NC(=O)c2ccc(N)cc2)cc1
inactive: [1] 89 % of control | [2] 86 % of control | [3] 89 % of control

O=C(COc1ccc(Br)cc1)Nc1ccc(Br)cc1
inactive: [4] 95 % of control | [5] 95 % of control | dose: 400.0 mg/kg/injection, schedule: Q04DX002 (ip), vehicle: Klucel (hydroxypropylcellulose) (HPC) 89 % of control

COc1cc(Cl)ccc1NC(=O)OCc1ccco1
inactive: dose: 100.0 mg/kg/injection, schedule: Q01DX009 (ip), vehicle: saline 111 % of control | dose: 200.0 mg/kg/injection, schedule: Q01DX009 (ip), vehicle: saline 111 % of control | dose: 400.0 mg/kg/injection, schedule: Q01DX009 (ip), vehicle: saline 100 % of control

CC(C)CCC1(C)CC(=O)Nc2ccccc21 (centres undefined)
inactive: [6] 97 % of control | [7] 94 % of control | [8] 95 % of control

NC(=O)C1CN1Cc1ccccc1 (centres undefined)
inactive: [9] 97 % of control | [10] 95 % of control | dose: 400.0 mg/kg/injection, schedule: Q01DX009 (ip), vehicle: saline with Tween-80 89 % of control

CC(=O)OCC1OC(Sc2nc3ncnc(N)c3[nH]2)C(OC(C)=O)C(OC(C)=O)C1OC(C)=O (centres undefined)
inactive: [6] 104 % of control | [7] 102 % of control | [8] 97 % of control

Cc1cc(C)c(S(=O)(=O)CC(Cl)c2ccccc2)c(C)c1 (centres undefined)
inactive: dose: 100.0 mg/kg/injection, schedule: Q01DX001 (ip), vehicle: acetone 95 % of control | dose: 100.0 mg/kg/injection, schedule: Q04DX003 (ip), vehicle: acetone 103 % of control | dose: 200.0 mg/kg/injection, schedule: Q01DX001 (ip), vehicle: acetone 97 % of control | dose: 200.0 mg/kg/injection, schedule: Q04DX003 (ip), vehicle: acetone 97 % of control | dose: 400.0 mg/kg/injection, schedule: Q01DX001 (ip), vehicle: acetone 93 % of control | dose: 400.0 mg/kg/injection, schedule: Q04DX003 (ip), vehicle: acetone 97 % of control

CC(=O)Oc1ccc(N2CC=C(c3ccccc3)CC2)cc1
inactive: [4] 89 % of control | [5] 95 % of control

O=C(C[n+]1ccc2ccccc2c1)c1ccc([N+](=O)[O-])cc1
inactive: dose: 12.5 mg/kg/injection, schedule: Q04DX003 (ip), vehicle: saline 101 % of control | dose: 25.0 mg/kg/injection, schedule: Q04DX003 (ip), vehicle: saline 103 % of control | dose: 50.0 mg/kg/injection, schedule: Q04DX003 (ip), vehicle: saline 107 % of control

CCOc1ccc(/C=C/c2cc[n+](C)cc2)cc1OC
inactive: dose: 25.0 mg/kg/injection, schedule: Q01DX001 (ip), vehicle: saline with Tween-80 108 % of control | dose: 50.0 mg/kg/injection, schedule: Q01DX001 (ip), vehicle: saline with Tween-80 95 % of control | dose: 100.0 mg/kg/injection, schedule: Q01DX001 (ip), vehicle: saline with Tween-80 93 % of control

CC/C(=N/O)c1ccc(O)cc1O
inactive: [9] 106 % of control | dose: 100.0 mg/kg/injection, schedule: Q04DX003 (ip), vehicle: saline with Tween-80 101 % of control | [10] 106 % of control | dose: 200.0 mg/kg/injection, schedule: Q04DX003 (ip), vehicle: saline with Tween-80 101 % of control | dose: 400.0 mg/kg/injection, schedule: Q04DX003 (ip), vehicle: saline with Tween-80 101 % of control

CCN(CCNC(C)(C)[P+](=O)O)c1ccccc1
inactive: dose: 75.0 mg/kg/injection, schedule: Q04DX003 (ip), vehicle: Klucel (hydroxypropylcellulose) (HPC) 100 % of control | [6] 105 % of control | dose: 150.0 mg/kg/injection, schedule: Q04DX003 (ip), vehicle: Klucel (hydroxypropylcellulose) (HPC) 96 % of control | [7] 105 % of control | dose: 300.0 mg/kg/injection, schedule: Q04DX003 (ip), vehicle: Klucel (hydroxypropylcellulose) (HPC) 110 % of control | [8] 102 % of control

CC(=O)OI(OC(C)=O)c1cccc(C)c1
inactive: [1] 96 % of control | [2] 96 % of control

O=C1NCCCN1
inactive: dose: 100.0 mg/kg/injection, schedule: Q04DX003 (ip), vehicle: saline sonified 104 % of control | dose: 200.0 mg/kg/injection, schedule: Q04DX003 (ip), vehicle: saline sonified 102 % of control | dose: 400.0 mg/kg/injection, schedule: Q04DX003 (ip), vehicle: saline sonified 101 % of control

O=C(Nc1ccc(Nc2ccccc2)cc1)c1ccc(F)cc1
inactive: dose: 100.0 mg/kg/injection, schedule: Q01DX009 (ip), vehicle: gum acacia 91 % of control | dose: 200.0 mg/kg/injection, schedule: Q01DX009 (ip), vehicle: gum acacia 96 % of control | dose: 400.0 mg/kg/injection, schedule: Q01DX009 (ip), vehicle: gum acacia 94 % of control

O=C(Nc1cccc(C(F)(F)F)c1)N1CCN(c2ccccc2)CC1
inactive: [1] 103 % of control | [2] 96 % of control | [3] 106 % of control

CC/C(=N\N=C(N)N)c1ccc(NC(=S)Nc2ccccc2)cc1
inactive: dose: 20.0 mg/kg/injection, schedule: Q01DX009 (ip), vehicle: saline 101 % of control | dose: 40.0 mg/kg/injection, schedule: Q01DX009 (ip), vehicle: saline 101 % of control | dose: 80.0 mg/kg/injection, schedule: Q01DX009 (ip), vehicle: saline 107 % of control

ClC(Cl)(Cl)C1OCCCO1
inactive: [6] 97 % of control | [7] 107 % of control | [8] 103 % of control

Cn1cc(C2Cc3ccccc3NC3=C2C(=O)CC(C)(C)C3)c2ccccc21 (centres undefined)
inactive: dose: 100.0 mg/kg/injection, schedule: Q01DX001 (ip), vehicle: other 103 % of control | dose: 200.0 mg/kg/injection, schedule: Q01DX001 (ip), vehicle: other 92 % of control | dose: 400.0 mg/kg/injection, schedule: Q01DX001 (ip), vehicle: other 86 % of control

COCCOc1nccc(N)n1
inactive: dose: 25.0 mg/kg/injection, schedule: Q01DX001 (ip), vehicle: saline 97 % of control | [11] 97 % of control | [6] 100 % of control

O=C(CCCC(=O)N/N=C/c1c(Cl)cccc1Cl)N/N=C\c1c(Cl)cccc1Cl
inactive: [11] 100 % of control | [6] 106 % of control | [7] 100 % of control | [8] 103 % of control

NC(=O)N(N)CCO
inactive: [6] 102 % of control | [7] 91 % of control | [8] 93 % of control
